Reference: patent publication US20200147060A1, “COMPOSITIONS AND METHODS OF TREATING CANCER” (UNIVERSITY OF IOWA RESEARCH FOUNDATION, priority 2018, published 2020)
Entries after “also recorded” stand apart in the source; their conditions may differ. Read-outs that look alike come from different tables or passages of the source.

Legend:
[1] = cited from earlier work; for tolerability in patients: reported clinical trials
A375 melanoma cells = assay: Clonogenic survival assay; format: cell-based, human; details: for development / acquisition of resistance to MAPKi (clonogenic survival): secondary agent combined with MAPKih (Vem 5 μM; Cobi 0.1 μM), PBA 2 mM, HCQ 12 μM
Method: To determine if the observed MAPKi-induced GSH imbalance plays a causal role in development of resistance, clonogenic survival assays were conducted in which cells were treated with GSH-synthesis inhibitor buthionine sulfoximine (BSO) (0.5 mM) with and without Vem. BSO depletes cellular GSH by inhibiting GSH synthesis via competitive inhibition of gamma-glutamylcysteine synthetase.

A375 cells = assay: Expression of ER-stress/UPR markers (GRP78/BiP, eIF2α); format: cell-based, human
Method: The GSH/GSSG ratio is known to be a fundamental buffering parameter of the ER, and ER-stress responses have been implicated in the initiation of autophagy and acquisition of resistance to MAPKih. Thus, the impact of MAPKi-induced GSH imbalance on the expression of ER-stress response proteins was assessed. Changes in UPR markers GRP78 (BiP) and eI2Fa (phospho-eI2Fa to inactivated eI2Fa) were determined by western blot in A375 cells treated with Vem alone and in combination with Cobi (FIGS. 2A-C). […] To explore the role of MAPKi-induced GSH imbalance on activation of UPR, similar time-course experiments were performed to monitor the expression of UPR markers with continuous MAPKi with and without GSH depletion (using BSO). Depletion of the GSH pool using BSO in this way rendered the cells incapable of initiating the ER-stress response and no increase in the expression of GRP78 was seen when A375 cells were treated continuously with Vemurafenib in the presence of BSO (FIG. 2D).

[2] = system: A375 BRAFV600E mutant melanoma cells; assay: Glutathione (GSH, GSSG) levels in cells under prolonged MAPKi; format: cell-based, human
Excerpt: (§1) Initial response rates to MAPKih (BRAFih and BRAFih+MEKih) are often significant (and sometimes remarkable), but melanoma almost invariably (within months) develops resistance to these treatments. It has been further documented that continuous MAPKi brings about changes in cellular metabolism accompanied with a shift in metabolism from glycolysis to oxidative phosphorylation in vitro. Changes were examined in metabolism and oxidative state of A375 BRAFV600E mutant melanoma cells from initiation of BRAFih (Vem, 5 μM) through the acquisition of resistance (approximately 30 days). […] Changes in cellular metabolism coincided with a nearly identical pattern in the cellular redox state of the cell when quantified by the method of DHE oxidation by fluorescence intensity. […] Considering the critical relationship between cellular responses to oxidative stress and the glutathione cellular redox buffer, the changes in glutathione (GSH) levels and the ratio of GSH to the oxidized form (GSH:GSSG) with prolonged MAPKi in the A375 cells treated with Vem (5 μM) were evaluated over the same time period (FIG. 1D).

[3] = system: A375 BRAFV600E mutant melanoma cells; assay: Oxygen consumption / extracellular acidification (Seahorse metabolic profiling); format: cell-based, human; details: Vem 5 μM continuous; plateaued within approximately 2 weeks
Method: (A) The ratio of basal metabolic oxygen consumption (BMOC)/extracellular acidification rate (ECAR) in response to continuous exposure to 5 μM Vem (N=6) as determined by Seahorse metabolic profiling; (B) Measurement of cellular pro-oxidant levels as determined by dyhdroethidium (DHE) oxidation in response to 5 μM Vem (N=3); (C) GSSG:GSH in response to Vem (N=2); (D) total cellular GSH in response to Vem (N=2).

[4] = system: A375 BRAFV600E mutant melanoma cells; assay: DHE oxidation (cellular redox state) by fluorescence intensity; format: cell-based, human; details: Vem 5 μM; subsided with acquisition of resistance
Excerpt: as §1

[5] = system: A375 metastatic melanoma cells; assay: Autophagosome area fraction (TEM) and LC3B-II expression; format: cell-based, human
Excerpt: (§2) UPR responses signal the activation of cytoprotective pathways such as autophagy. The role of GSH in mediating the acquisition of resistance was further explored by examining autophagy and autophagic flux responses to MAPKi in A375 metastatic melanoma cells.

A375-CG-LC3B cells = assay: Autophagic flux (mCherry:EGFP ratio) by flow cytometry; format: cell-based, human
Excerpt: as §2
Briefly, A375-CG-LC3B cells were obtained using a retroviral vector containing a coding sequence for a mCherry-EGFP-LC3B tandem protein (pBABE-puro mCherry-EGFP-LC3B, #22418, Addgene). The retrovirus was packaged in GP2-293 cells by co-transfection of 1 μg of viral DNA constructs and 1 μg of envelope plasmid (pVSV-G) in 20 μL PolyFect transfection reagent (Qiagen) for 48 hours at 37° C., 5% CO2. Virus-rich media was collected, aliquoted, and stored at −80° C. Cells were infected using the virus-rich media in DMEM (high glucose) for 12 h followed by incubation in complete media (high-glucose DMEM with 10% FBS) for 24 h. […] Autophagy was quantified as autophagic flux (Af) using A375-CG-LC3B cells.
Where Fmcherry is mcherry fluorescence measured using the 532 nm laser and FGFP is GFP fluorescence measured using the 488 nm laser on LSR II. […] Samples were analyzed on an LSR II flow cytometer (BD). Af was calculated for live, non-apoptotic (Hoechst negative, Annexin V negative) population using the derived parameter function in Flow Jo software (V10.4). […]

[6] = system: MAPKi-sensitive A375 melanoma xenografts; assay: A375 xenograft bearing mice treated with MAPKih with or without PBA and HCQ; format: in vivo; details: Vem 16 mg/kg twice a day, Cobi 1 mg/kg once a day, PBA 250 mg/kg twice a day i.p., HCQ 10 mg/kg twice a day
Method: To further explore the potential of simultaneous pharmacological inhibition of ER-stress and autophagy in preventing resistance to MAPKih, A375 xenograft bearing mice (FIGS. 5A-D) were treated with MAPKih or MAPKih in combination with PBA (250 mg kg-1 per dose, twice a day, i.p.) and HCQ (10 mg kg-1 per dose, twice per day, oral gavage). […] The experimental groups included MAPKi by Vem (BRAFih) (16 mg kg-1 per dose, twice a day, oral gavage) alone and in combination with Cobi (MAPKih) (1 mg kg-1 per dose, once a day, oral gavage).

[7] = system: MAPKi-resistant 451LuBR melanoma xenografts; assay: 451LuBR (BRAFi resistant melanoma) xenograft mouse model; format: in vivo, mice
Method: FIGS. 5A-5F. Pharmacologically Inhibiting Autophagy and ER-stress Simultaneously in Combination with MAPKih Improve Overall Survival in Vivo. Simultaneous inhibition of autophagy and ER-stress with MAPKih (Vem and Vem+Cobi) improves outcome in melanoma tumor bearing mice. (A-D) Simultaneous inhibition of ER-stress using PBA (250 mg kg^−1 twice a day) and autophagic flux using (HCQ 10 mg kg^−1 twice a day) with MAPKih (Vem 16 mg kg^−1 twice a day; Cobi 1 mg kg^−1 once a day) improves outcome in mice bearing MAPKi-sensitive A375 melanoma xenografts (N=13). (A) estimated tumor growth curves in response to PBA and HCQ with Vem; (B) estimated tumor growth curves in response to PBA and HCQ with Vem+Cobi; (C) overall survival in response to PBA and HCQ with Vem; (D) overall survival in response to PBA and HCQ with Vem+Cobi. (E, F) Simultaneous inhibition of ER-stress using PBA (250 mg kg^−1 twice a day) and autophagic flux using (HCQ 6.6 mg kg^−1 twice a day) with MAPKih (Vem 10 mg kg^−1 twice a day) improves outcome in mice bearing MAPKi-resistant 451LuBR melanoma xenografts (N=10); (E) estimated tumor growth curves in response to PBA and HCQ with Vem; and (F) overall survival in response to PBA and HCQ with Vem.
The potential for simultaneous inhibition of ER-stress and autophagy in overcoming resistance to MAPKih was further explored using a 451LuBR (BRAFi resistant melanoma) cell-line xenograft mouse model treated in the same way. Predictably, administering Vem alone had no effect of tumor growth and overall survival, establishing that these tumors are resistant to BRAFi.

metastatic melanoma = details: cited from earlier work; for progression-free survival (time tumor progression is slowed): melanoma patients, average
451 Lu melanoma cells = assay: Clonogenic survival assay; format: cell-based; details: ME added to the combination of vem and BSO
Method: FIGS. 7A-7L. Reduced Thiols Play a Vital Role in Development of Resistance to MAPKi. (A-E) Reduced thiols play a vital role in development of resistance to MAPKi in vitro. Changes in (A) cellular concentration of reduced glutathione (GSH, nmoles/mg protein) (B) cellular concentration of oxidized glutathione (GSSG, nmoles/mg protein) of A375 melanoma cells when treated with buthionine sulfoximine (BSO, 0.5 mM) and 2-mercaptoethanol (ME, 150 μM) in presence of vemurafenib (Vem, 5 μM) (N=3). Difference in clonogenic survival of A375 (N=2, n=3) and 451 Lu (N=1, n=3) melanoma cells when treated with vem alone compared to (C) vem in combination with ME and (D) vem in combination with BSO. (E) Addition of ME to the combination of vem and BSO rescues clonogenic survival in A375 and 451 Lu melanoma cells. […] Spider plots show individual tumor growth rates in A375 tumor bearing mice (N=8) when (F) untreated; (G) treated with BSO (15 mM in drinking water); (H) treated with AIN-76A rodent diet mixed with vemurafenib (PLX4720); (I) combination of AIN-76A rodent diet mixed with vemurafenib (PLX4720) with BSO. (J) Levels of total cellular GSH in tumor tissue obtained from untreated mice and mice treated with BSO. (K) Progression Free Survival (PFS) and (L) Overall survival (OS). ±SEM; *p=0.01 to 0.05, **p=0.001 to 0.01 ****P<0.0001.

[8] = A375 cells, prolonged MAPKi (Vem 5 μM)
[9] = Vem 10 mg/kg, PBA 250 mg/kg, HCQ 6.6 mg/kg, each twice a day, compared to control

## O=C(O)CCCc1ccccc1 [PBA, phenylbutyric acid]
[1]; patients suffering from urea cycle disorders
  tolerated dose: up to 27 g per day
[1]
  tolerability in patients: safely administered

## CCCCS(=N)(=O)CCC(N)C(=O)O [BSO, L-buthionine-[S,R]-sulfoximine]
A375 melanoma cells; BSO 0.5 mM alone, without MAPKih
  clonogenic survival: did not affect
A375 melanoma cells; BSO 0.5 mM
  development / acquisition of resistance to MAPKi (clonogenic survival): completely inhibits acquisition of resistance; also recorded: prevents acquisition of resistance
A375 cells; continuous Vem in the presence of BSO 0.5 mM
  expression of GRP78 (BiP): diminished
[1]
  tolerability in patients: well-tolerated

## CCCS(=O)(=O)Nc1ccc(F)c(C(=O)c2c[nH]c3ncc(-c4ccc(Cl)cc4)cc23)c1F [Vem, Vemurafenib]
[2]; >170 d Vem treatment, versus untreated control cells
  total GSH concentration after adaptation: re-equilibrated to levels comparable to untreated control cells
[2]; [8]
  depletion of glutathione (GSH): 68%
  increase in oxidized glutathione (GSSG): 30 fold
[3]
  ratio of oxygen consumption linked to basal mitochondrial respiration (OCR) and extracellular acidification rate (ECAR): initial increase
[4]
  oxidation of DHE: initial increase
A375 cells; continuous MAPKi, later decrease to pre-treatment levels
  expression of ER-stress markers: gradual increase
[5]; Vem 5 μM
  area fraction of cells covered by autophagosomes (TEM): significant increase
[5]; continuous MAPKi by Vem
  expression of autophagic flux marker LC3B-II: significant increases
A375-CG-LC3B cells; continuous MAPKi (Vem 5 μM; Cobi 0.1 μM) versus untreated cells
  autophagic flux: increased
[6]
  rate of tumor growth: similar
[7]; [9]
  median / overall survival: no effect
  tumor growth rate: no effect
Metastatic melanoma; listed as Vemurafenib
  progression-free survival (time tumor progression is slowed): about 7.2 months
Metastatic melanoma; listed as vemurafenib
  progression-free survival (time tumor progression is slowed): 7.2 months

## CCN(CCO)CCCC(C)Nc1ccnc2cc(Cl)ccc12 (stereo not shown) [HCQ, Hydroxychloroquine]
A375 melanoma cells; BSO 0.5 mM
  development / acquisition of resistance to MAPKi (clonogenic survival): prevented resistance
A375-CG-LC3B cells; secondary agent (BSO 0.5 mM, PBA 2 mM, HCQ 12 μM) added to MAPKih, versus MAPKih alone
  autophagic flux induced by MAPKi: decreased
[7]; [9]
  median / overall survival: significantly enhanced
[7]; share of mice
  complete response (complete remissions): 20%
[1]
  tolerability in patients: well tolerated

## CC(C)(C)c1nc(-c2cccc(NS(=O)(=O)c3c(F)cccc3F)c2F)c(-c2ccnc(N)n2)s1 [dabrafenib, Dabrafenib]
Metastatic melanoma; clinical trial data
  time until resistance occurs: 6 to 7 months

## OCCS [ME, 2-mercaptoethanol]
A375 melanoma cells; ME 150 μM, BSO 0.5 mM, Vem 5 μM
  clonogenic survival on addition of ME to vem and BSO: reversed; also recorded: rescues
451 Lu melanoma cells
  clonogenic survival on addition of ME to vem and BSO: rescues
